Entries after “also recorded” stand apart in the source; their conditions may differ.
Assays:
Type in all cases: in vivo, mouse
[1] = system: MRGPRB4+ neurons (hM3DREADD); experiment: Conditioned place preference (CPP) assay, biased design, pharmacogenetic activation with CNO
Description: (§1) For behavioral experiments, juvenile (1-month-old) mice neonatally injected with Cre-dependent AAV8 viruses expressing hM3DREADD were subjected to a conditioned place preference assay (CPP13) using a biased design, by an investigator blind to genotype. All mice were tested for their initial chamber preference before conditioning, as depicted in FIG. 4C, lower panel).
(§2) The conditioned place preference (CPP) protocol was based on previous studies. For testing a positive valence effect of activation of MrgprB4^+ neurons, a biased compartment assignment procedure in which activation of the neurons is tested for its ability was used to increase the time spent in the initially non-preferred chamber. The CPP apparatus consisted of a rectangular chamber divided into three compartments (300×150×150 mm per compartment), connected via an opening (50×50 mm) in each delimiting wall. The two side (test) compartments were designed to have different visual and tactile cues, by having distinct walls (horizontal or vertical alternating white and black stripes) and distinct floors (different shapes of floor grids with big or small square holes). In addition a 1-inch-diameter polyvinylchloride (PVC) pipe coupler (two schedule 40 wall thickness), either threaded or smooth, was placed in the centre of each side compartment to enrich for tactile cues. The centre compartment was a neutral plastic enclosure (see FIG. 4B). This design was chosen so as to promote a compartment preference assignment for each mouse. A video tracking system (Noldus Ethovision) recorded all animal movements.
(§3) Because our hypothesis is based on the social reward mediated by social contact in juvenile mice, the mice used were approximately 1-month old. After weaning the mice were maintained in social groups and left undisturbed until the start of the CPP assay. The paradigm was completed in 6 days. On the day before pre-testing the mice were socially isolated in their home cage. On day 1 of the procedure each mouse was placed in the central compartment and allowed to explore the entire apparatus freely for 30 min (pre-test). After the pre-test the initial preference of each mouse for a given side compartment was recorded. […] Conditioning was initiated on day 2 and encompassed four sessions performed on four consecutive days. In the first conditioning session mice were injected i.p. with CNO (5 mg kg) (or saline of an equivalent volume for some control mice) and placed for 1 h (based on the observation that CNO effects peak between 45 and 50 min after administration) in the initially non-preferred (I.N.P.) compartment. On day 3, during the second conditioning session, all mice were injected with saline and confined for 1 hr in the opposite (that is, initially preferred, I.P.) compartment. (The second conditioning session was performed the following day as CNO effects last for 9 hrs.) On day 4 and day 5 the first and second conditioning sessions were repeated, respectively. The time between the i.p. injections of CNO or saline and the placement of the mice in the compartment was between 5-10 min, which is compatible with the time that is needed for CNO to start having an effect. On day 6, the mice were tested for their side compartment preference by placing them in the centre compartment and allowing them to explore the entire apparatus freely for 30 min (post test). All sessions were conducted blind to the genotype/injected virus of each mouse. For the conditioned place aversion (CPA assay) the mice remained group-housed until the day before the pre-test. After the pre-test, on the first day of the conditioning session the mice were injected with saline and confined in the I.N.P. compartment. On the second day of conditioning the mice were injected with CNO (except for the saline control mice) and placed in the I.P. compartment. On the third and fourth day of conditioning the first and second sessions of conditioning were repeated, respectively. […]

[2] = system: MRGPRD+ neurons (hM3DREADD); experiment: as above; conditions: MrgprD-Cre/hM3DREADD mice conditioned with CNO, n=8
Description: as §1, §2, §3

[3] = system: MRGPRB4+ spinal afferent fibres co-expressing GCaMP3.0 and hM3DREADD; experiment: Calcium imaging after spinal application of CNO in MrgprB4+ fibres expressing hM3DREADD and GCaMP3.0; conditions: CNO 1.5 mM, mice co-injected with GCaMP3.0 and hM3DREADD viruses
Description: KCl, final concentration (60 mM), α,β-methyl ATP (5 mM) and CNO (1.5 mM) were delivered manually to the imaging bath using a pipetman pipette.
The stimuli used to activate MRGPRB41 fibres were designed to mimic stroking and allogrooming stimuli. […] To determine whether direct activation of MRGPRB41 neurons could similarly promote a preference for the location in which this stimulation occurred, a pharmacogenetic strategy was used. Juvenile (1-month-old) Mrgprb4-cre male mice were injected neonatally with an AAV encoding the hM3-(Gq-coupled)DREADD19, the activation of which by clozapine-N-oxide (CNO) causes membrane depolarization (FIG. 4a).
Spinal application of CNO was employed to image activation of hM3DREADD and GCaMP3.0-expressing MrgprB4^+ fibers. The low probability of double-infection of individual MrgprB4^+ neurons with both the GCaMP3.0 and hM3DREADD Cre-dependent viruses (˜30%), taken together with the difficulty of identifying sites for focal peripheral injection corresponding to specific MrgprB4^+ central afferent fibers visualized in the spinal cord, precluded peripheral delivery of CNO for this assay.

SMILES: C[N+]1([O-])CCN(C2=Nc3cc(Cl)ccc3Nc3ccccc32)CC1 [CNO, Clozapine-N-oxide]
- difference of means of difference scores, experimental versus pooled controls ([1]; 95% confidence interval 62.9-339.3, Cohen's d=0.872): 201±70
- difference score (time after conditioning minus before conditioning), saline-paired chamber ([1]; MrgprB4::hM3DREADD mice, n=15): -340 ± 74 s
- difference score (time after conditioning minus before conditioning), CNO-paired (I.N.P.) chamber ([1]; MrgprB4::hM3DREADD mice, n=15, p<0.01): 253 ± 66 s
- increase in the time spent in the I.N.P. chamber paired with CNO exposure ([1]; Mrgprb4-hM3DREADD mice, CNO 5 mg/kg i.p., pre- versus post-training, n=15, P<0.01): 190±95%
- change in the difference score for the I.N.P. chamber ([1]; control mice expressing hrGFP in MrgprB4+ (n=9) or MrgprD+ (n=10) neurons, conditioned with CNO): No significant change
- mean difference score of the experimental animals in the I.N.P. chamber ([1]; experimental group (FIG. 4e, j)): 253±65.8
- increase in preference score for the I.N.P. chamber (time in CNO/I.N.P. chamber divided by total time in the two test chambers) ([1]; experimental group, pre vs. post, p<0.001): 195±86%
- conditioned place preference (CPP) [2]: neither CPP
- calcium transients after application to the spinal cord [3]: able to induce calcium transients; also recorded: robust calcium transients
